# ChEMBL document CHEMBL1201862, “PubChem BioAssay data set” (2004)
#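 Five compound concentrations were applied to cells in 96-well plates for 48 hours; endpoints were derived by simple linear interpolation of the resulting dose-response curve. At the GI50, growth is halved.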 Active and inactive are the calls of the source. Cut-off read from the data, not from the text of the source: active = GI50 up to about 1.1 µM and inactive = higher.
# Experiments:
# Test in all cases: NCI-60 cell line screen, 48 h
# [1] = tested on: SF-268
# [2] = tested on: RPMI-8226
# [3] = tested on: UACC-62
# [4] = tested on: CAKI-1
# [5] = tested on: DMS-114
# [6] = tested on: SNB-75
# [7] = tested on: SR
# [8] = tested on: U-251
# [9] = tested on: IGROV-1
# [10] = tested on: ACHN
# [11] = tested on: SK-MEL-5
# [12] = tested on: HT-29
# [13] = tested on: KM12
# [14] = tested on: KM-20L2
# [15] = tested on: SNB-78
# [16] = tested on: A549
# [17] = tested on: RXF 393
# [18] = tested on: HCT-15
# [19] = tested on: NCI-H460
# [20] = tested on: COLO 205
# [21] = tested on: A498
# [22] = tested on: HL-60
# [23] = tested on: CCRF-CEM
# [24] = tested on: MOLT-4
# [25] = tested on: UO-31
# [26] = tested on: OVCAR-3
# [27] = tested on: DLD-1
# [28] = tested on: SK-MEL-28
# [29] = tested on: HOP-92
# [30] = tested on: HCT-116
# [31] = tested on: NCI-H226
# [32] = tested on: SF-295
# [33] = tested on: SNB-19
# [34] = tested on: Malme-3M
# [35] = tested on: SK-OV-3
# [36] = tested on: SW-620
# [37] = tested on: LXFL 529
# [38] = tested on: K562
# [39] = tested on: OVCAR-5
# [40] = tested on: EKVX
# [41] = tested on: HCC 2998
# [42] = tested on: TK-10
# [43] = tested on: NCI-H522
# [44] = tested on: SN12C
# [45] = tested on: UACC-257
# [46] = tested on: M14
# [47] = tested on: DMS-273
# [48] = tested on: NCI-H23
# [49] = tested on: OVCAR-4
# [50] = tested on: SK-MEL-2
# [51] = tested on: OVCAR-8
# [52] = tested on: XF498
# [53] = tested on: HOP-62
# [54] = tested on: SF-539
# [55] = tested on: M19-MEL
compound,measurement,setting,value
NCCCCNCCCNC(=O)c1nc(-c2csc(CCN)n2)sc1Cl,GI50,[1],62.7 µM (inactive)
same,GI50,[2],> 100 µM (inactive)
same,GI50,[3],> 100 µM (inactive)
same,GI50,[4],> 100 µM (inactive)
same,GI50,[5],> 100 µM (inactive)
same,GI50,[6],> 100 µM (inactive)
same,GI50,[7],> 100 µM (inactive)
same,GI50,[8],> 100 µM (inactive)
same,GI50,[9],> 100 µM (inactive)
same,GI50,[10],> 100 µM (inactive)
same,GI50,[11],> 100 µM (inactive)
same,GI50,[12],> 100 µM (inactive)
same,GI50,[13],> 100 µM (inactive)
same,GI50,[14],> 100 µM (inactive)
same,GI50,[15],> 100 µM (inactive)
same,GI50,[16],> 100 µM (inactive)
same,GI50,[17],> 100 µM (inactive)
same,GI50,[18],> 100 µM
same,GI50,[19],> 100 µM (inactive)
same,GI50,[20],> 100 µM (inactive)
same,GI50,[21],> 100 µM (inactive)
same,GI50,[22],> 100 µM (inactive)
same,GI50,[23],> 100 µM (inactive)
same,GI50,[24],> 100 µM (inactive)
same,GI50,[25],> 100 µM (inactive)
same,GI50,[26],> 100 µM (inactive)
same,GI50,[27],> 100 µM (inactive)
same,GI50,[28],> 100 µM (inactive)
same,GI50,[29],> 100 µM (inactive)
same,GI50,[30],> 100 µM (inactive)
same,GI50,[31],> 100 µM (inactive)
same,GI50,[32],> 100 µM (inactive)
same,GI50,[33],> 100 µM (inactive)
same,GI50,[34],> 100 µM (inactive)
same,GI50,[35],> 100 µM (inactive)
same,GI50,[36],> 100 µM (inactive)
same,GI50,[37],17.9 µM (inactive)
same,GI50,[38],49.5 µM (inactive)
same,GI50,[39],> 100 µM (inactive)
same,GI50,[40],> 100 µM (inactive)
same,GI50,[41],> 100 µM (inactive)
same,GI50,[42],> 100 µM (inactive)
same,GI50,[43],> 100 µM (inactive)
same,GI50,[44],> 100 µM (inactive)
same,GI50,[45],> 100 µM (inactive)
same,GI50,[46],> 100 µM (inactive)
same,GI50,[47],> 100 µM (inactive)
same,GI50,[48],> 100 µM (inactive)
same,GI50,[49],> 100 µM (inactive)
same,GI50,[50],> 100 µM (inactive)
same,GI50,[51],> 100 µM (inactive)
same,GI50,[52],> 100 µM (inactive)
same,GI50,[53],> 100 µM (inactive)
same,GI50,[54],> 100 µM (inactive)
same,GI50,[55],> 100 µM (inactive)
